Source: patent publication US10409869B2, “(R)- and (S)-1-(3-(3-N,N-dimethylaminocarbonyl)phenoxyl-4-nitrophenyl)-1-ethyl-N,N'-bis (ethylene)phosphoramidate, compositions and methods for their use and preparation” (OBI Pharma, Inc., priority 2015, dated 2019)

Tests used:
[1] = Body weight and toxicity in the orthotopic HepG2-GFP mouse model; format: in vivo, nude mice; settings: intra-peritoneal, low (2.5 mg/kg) or high (5 mg/kg) dose
[2] = tested on: HepG2-GFP human hepatocellular carcinoma; assay: Orthotopic HepG2-GFP human hepatocellular carcinoma mouse model, tumor burden; format: in vivo, nude mice; settings: at tested dosages
Experimental: Female athymic nude mice (6 weeks of age) were used in this study. The animals were purchased from Beijing HFK Bioscience, Co., Ltd and maintained in a High Efficiency Particulate Air Filter (HEPA) filtered environment with cages, food, and bedding sterilized by irradiation or autoclaving. A total of 32 nude mice were used for the study. HepG2-GFP human hepatocellular carcinoma cells (AntiCancer, Inc., San Diego, Calif.) were incubated with RPMI-1640 (Gibco-BRL, Life Technologies, Inc.), which contained 10% FBS. Cells were grown in a CO2 Water Jacketed Incubator (Forma Scientific) maintaining 37° C. and a 5% CO2/95% air atmosphere. Cell viability was determined by trypan blue exclusion analysis. Five female athymic nude mice were injected subcutaneously with a single dose of 5×10^6 HepG2-GFP cells. Tumors were harvested when their size reached 1 cm^3 and the tumor tissues were then cut into small fragments of 1 mm^3. Forty female nude mice were implanted orthotopically with a single piece of tumor fragment, which was derived from a subcutaneous tumor model of HepG2-GFP human hepatocellular carcinoma. The tumor tissue was orthotopically implanted in the right lobe of the liver in each mouse by SOI (Surgical Orthotopic Implantation). […]
During the period of the study, all of the experimental mice were checked daily for mortality or signs of morbidity. […] The body weights of the mice were measured twice weekly during the study period. […] Comparisons of body weights and tumor burdens in different groups were analyzed using the Student's t-test with an α=0.05 (two-sided). […]
The progressions of orthotopic HepG2-GFP hepatocellular carcinoma in different groups were monitored by real time imaging. […] Typical tumor images at the end of the study in each group and tumor growth curves derived from the signals of tumor fluorescence, which were analyzed using the Power Station software (INDEC Biosystems, CA, USA), are shown in FIG. 6 and FIG. 7, respectively
Tumor IR was calculated based on the final average tumor weights according to the formula: IR (%)=(1−treatment(t)/control(c))×100

C[C@H](OP(=O)(N1CC1)N1CC1)c1ccc([N+](=O)[O-])c(Oc2cccc(C(=O)N(C)C)c2)c1 (single isomer, unassigned) [TH3424]
toxicity to the experimental mice [1]: no obvious toxicity | toxicity to the experimental mice ([1]; listed as TH2870-2): no obvious acute toxicity | inhibitory effect on orthotopic HepG2-GFP model [2]: very strong inhibitory effect
